Ends that are not written are not given here.

In experiment [1] the test system is CSP-specific, IFNγ-secreting CD8+ T cells. As to the kind of experiment: Immunogenicity of AdPyCSP malaria vaccine (ELISPOT). The experiment is classed as in vivo, Balb/c mice. Conditions: for increase in number of CSP-specific, IFNγ-secreting CD8 T cells relative to AdPyCSP alone: 200 μg i.p. days 0, 1, 3, 5, 7, day 12. The protocol:
Balb/c mice were immunized intramuscularly with 10^10 virus particles of a recombinant replication defective adenovirus expressing the Plasmodium yoelli circumsporozoite protein (AdPyCSP).
The negative control peptide used in this study was the ovalbumin (OVA) peptide ([…], SEQ ID NO:34). At day 12 post immunization, mice were euthanized, individual spleens removed, and the number of splenic CSP-specific, IFNγ-secreting CD8^+ T cells were determined by ELISPOT assay. For the ELISPOT assay splenocytes were stimulated with the peptide […] (SEQ ID NO:35), an H-2Kd-restricted CD8^+ T cell epitope of PyCSP.
Peptides LD01, LD10da, and LD16da were tested as described above, this time using peptide LD12 (cohort 2) as the negative control. Test sample, route of treatment and treatment days are detailed in Table 2B.
At day 12 post immunization, mice were euthanized, individual spleens removed, and the number of splenic CSP-specific, IFNγ-secreting CD8^+ T cells were determined by ELISPOT assay. For the ELISPOT assay splenocytes were stimulated with the peptide […] (SEQ ID NO:35), an H-2Kd-restricted CD8^+ T cell epitope of PyCSP.

The subject of experiment [2] is human PBMCs. The experiment is classed as cell-based. Conditions: 72 hours.
Experiment [3] has as its target T1, human PD-1 (Homo sapiens, UniProt Q15116). The experiment can be described thus: Binding of PD-L1-Fc to PD-1 in a cell-free plate assay. Conditions: plates coated with peptide; 1 μg/mL PD-1. On the procedure: The plates were washed and blocked with 1% BSA for 1 hour at room temperature. The plates were then incubated with 100 μL of 1 μg/mL PD-1 at room temperature for 1 hour. The plates were again washed and incubated with PD-L1 at room temperature for 1 hour. After another round of washes, the plates were incubated with anti-human IgG-HRP. After incubation for 1 hour and washes, the HRP was detected by incubating with TMB substrate, and the OD were read on a microplate reader.
Target sequence in this assay (Q15116 25-167 limits assumed): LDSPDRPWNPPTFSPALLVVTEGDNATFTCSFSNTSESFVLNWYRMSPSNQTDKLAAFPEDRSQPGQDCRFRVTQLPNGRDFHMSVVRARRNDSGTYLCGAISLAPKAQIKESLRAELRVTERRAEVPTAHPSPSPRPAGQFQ
Target sequence in this assay (Q9NZQ7 19-238 partner limits assumed): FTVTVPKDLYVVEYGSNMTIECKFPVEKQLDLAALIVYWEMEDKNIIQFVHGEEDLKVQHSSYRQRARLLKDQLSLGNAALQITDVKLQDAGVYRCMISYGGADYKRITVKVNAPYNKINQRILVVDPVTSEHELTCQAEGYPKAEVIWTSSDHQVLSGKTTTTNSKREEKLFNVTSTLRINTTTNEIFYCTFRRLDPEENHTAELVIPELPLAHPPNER

For experiment [4], the system named is CD1 mice with intra-abdominal peritonitis induced by cecal ligation and puncture (CLP). The experiment can be described thus: Mouse sepsis model (CLP), survival. The experiment is classed as in vivo. Conditions: 200 μg intraperitoneally at 6, 24, and 48 hours after CLP surgery. The source says:
CD1 mice were anesthetized, a midline abdominal incision made, the cecum was ligated and punctured, and then the incision closed.

Experiment [5] concerns mouse splenocytes. As to the kind of experiment: Anti-CD3-stimulated mouse splenocyte proliferation (CFSE). The experiment is classed as cell-based. Particulars: 1, 5, 25 μM peptide; 1 μg/mL anti-CD3; presence and absence of exogenously added PD-L1-Fc; 3 days. On the procedure:
PD-L1-Fc fusion protein is hypothesized to reduce anti-CD3 induced splenocyte proliferation.
Carboxyfluorescein diacetate succinimidyl ester (CFSE)-labeled mouse splenocytes (400,000 cells, 5 μM CFSE) were stimulated using 1 μg/mL anti-CD3 antibody and varying levels of PD-L1-Fc or an irrelevant control Fc. […] The CFSE dilution profiles were analyzed by flow cytometry after 3 days of treatment.

For experiment [6], the system named is B16-F-10 mouse melanoma. The experiment can be described thus: B16-F10 mouse melanoma lung metastasis model. Conditions: for number of tumor nodules, difference versus no treatment saline (one-way ANOVA, p<0.05) / reduction of lung metastasis (tumor nodules) relative to no treatment saline: Table 1B study, i.v., days 1, 2, 4, 6, 8, 12. The experiment is classed as in vivo, C57/BL6 mice.

For experiment [7], the target named is T2, human PD-1 expressed on the surface of Jurkat cells (Homo sapiens, UniProt Q15116).
T2 construct: host or cells: Jurkat
As to the kind of experiment: Binding of PD-L1-Fc fusion protein to human PD-1 on Jurkat cells (flow cytometry). It is filed as cell-based. Conditions: varying peptide concentrations, 1 hour pre-incubation; increasing dose-response trend. On the procedure: A human T cell line (Jurkat) stably expressing human PD-1 on its surface was purchased from Promega. This cell line was cultured using sterile techniques and maintained in log-phase growth. PD-1 protein expression levels were measured using an anti-human PD-1 antibody labeled with allophycocyanin (APC) for quality assessment.
For the experiment, 200 μL of 2.5*10^5 cells were plated in staining buffer into a microtiter plate. […] After another wash step, the cells were incubated with anti-human Fc labeled with AF647 for 30 minutes. After several washes, the mean fluorescence intensity due to PD-L1-Fc binding to PD-1 was measured by flow cytometry.
On the technique in general: Flow cytometry measures light scatter and fluorescence of single cells or particles in a stream.

For experiment [8], the target named is T1, human PD-1. The experiment can be described thus: BIACORE binding of peptide LD01 to human PD-1. Conditions: immobilized peptide; single analyte concentration 290 nM; 25° C. The protocol:
(§1) BIACORE® assays were carried out using a BIACORE® T-200 at 25° C. The assay and regeneration buffers contained 10 mM HEPES (pH 7.4), 150 mM NaCl, 3 mM EDTA, and 0.05% P20. The immobilization buffer was 10 mM sodium acetate, pH 5.0. The flow rate used for immobilizing the ligand was 5 μl/min. The flow rate for kinetics analysis was 30 μl/min.
(§2) Scouting. […] The un-occupied sites were blocked with 1M ethanol amine. Scouting was performed at a single analyte concentration of 290 nM to confirm yes/no binding. Flow cell 1 was kept blank and used for reference subtraction. Binding of analyte to the ligand was monitored in real time.
(§3) Full Kinetics. Based on the scouting results, full kinetics was performed at analyte concentration of 100 nM, followed by serial dilution to 50, 25, 12.5, 6.25, 3.125, 1.562 and 0 nM concentration or as indicated. KD was determined from the observed kon (on rate) and koff (off rate) or by steady state equilibrium kinetics for the interactions with fast off rate.
(§4) Chi square (χ^2) analysis was carried out between the actual Sensorgram and the sensorgram generated from the BIAnalysis software to determine the accuracy of the analysis. χ^2 value within 1-2 is considered significant (accurate) and below 1 is highly significant (highly accurate).
Background: In SPR one partner is held on a chip, and binding of the other changes the refractive index at the surface.
Target sequence in this assay (Q15116 25-288): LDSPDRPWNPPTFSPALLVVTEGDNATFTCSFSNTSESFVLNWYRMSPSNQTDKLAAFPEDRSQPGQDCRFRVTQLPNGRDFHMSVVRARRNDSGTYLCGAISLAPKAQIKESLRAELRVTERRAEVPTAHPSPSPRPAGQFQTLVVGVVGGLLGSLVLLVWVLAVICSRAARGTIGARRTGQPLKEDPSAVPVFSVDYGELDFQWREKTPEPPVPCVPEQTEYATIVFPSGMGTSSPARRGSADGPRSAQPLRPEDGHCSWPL

Experiment [9] has as its system IFNγ-secreting T cells. The experiment can be described thus: Mouse sepsis model (CLP), splenic IFNγ-secreting T cells by ELISPOT. Particulars: treated at 6, 24, 48, 72 and 96 hours after CLP, anti-CD3 and anti-CD28 stimulation. It is filed as in vivo, mice. On the procedure:
Twenty-four hours later, mice were euthanized, individual spleens were removed, and the number of splenic IFNγ-secreting T cells were determined by ELISPOT assay. For the ELISPOT assay splenocytes were stimulated via anti-CD3 and anti-CD28. Shown in FIG. 14 is the number of IFNγ-secreting T cells per 2×10^5 splenocytes.

For experiment [10], the target named is T3, mouse PD-1 (Mus musculus, UniProt Q02242).
T3 sequence (Q02242 25-288): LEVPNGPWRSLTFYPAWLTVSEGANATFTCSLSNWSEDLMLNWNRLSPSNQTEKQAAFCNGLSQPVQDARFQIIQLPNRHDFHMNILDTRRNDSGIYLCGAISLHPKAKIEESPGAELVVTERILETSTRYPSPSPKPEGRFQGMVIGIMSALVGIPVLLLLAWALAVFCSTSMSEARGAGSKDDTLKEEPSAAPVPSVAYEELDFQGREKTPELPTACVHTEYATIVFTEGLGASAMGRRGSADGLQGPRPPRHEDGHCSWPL
The experiment can be described thus: BIACORE binding of peptide LD01 to mouse PD-1. Conditions: immobilized peptide; 25° C. The protocol:
as §1, §2, §3, §4

T2 sequence (Q15116 25-288): as the sequence (Q15116 25-288) above

`CC[C@H](C)[C@H](NC(=O)[C@H](CCC(N)=O)NC(=O)CNC(=O)[C@@H](NC(=O)[C@H](CO)NC(=O)[C@@H](NC(=O)[C@H](CCCNC(=N)N)NC(=O)[C@H](CCCNC(=N)N)NC(=O)[C@@H](N)CS)[C@@H](C)O)[C@@H](C)O)C(=O)N[C@@H](CO)C(=O)N[C@H](C(=O)N[C@@H](CC(C)C)C(=O)N[C@@H](CCCNC(=N)N)C(=O)N[C@H](C(=O)N[C@@H](CC(N)=O)C(=O)N[C@H](C(=O)N[C@H](C(=O)N[C@@H](C)C(=O)N1CCC[C@H]1C(=O)N[C@@H](CC(C)C)C(=O)N[C@@H](CO)C(=O)N[C@@H](CCC(N)=O)C(N)=O)[C@@H](C)O)[C@@H](C)CC)C(C)C)[C@@H](C)O` [LD01]: in experiment [1] (Table 2A study, 200 μg i.p.), the “immunogenicity compared with anti-PD-1 or -PD-L1 antibody (Cohort 4 and 5)” value is listed as “slightly above”. Besides, in [1] (Table 2A study), the “increase in number of CSP-specific, IFNγ-secreting CD8 T cells relative to AdPyCSP alone” value is reported as approximately 2 fold. Besides, the “increase in number of CSP-specific, IFNγ-secreting CD8 T cells relative to AdPyCSP alone” value in experiment [1] (Table 2B study) is approximately 1.5 fold. The “increase in IFN-γ secretion relative to SEB alone” value in [2] was 4 fold. In [3], the “effect on binding of human PD-L1-Fc fusion protein to human PD-1 in a cell-free assay” value is “enhances binding”. The compound also showed a survival rate in [4] of 70%. In addition, in experiment [5], the “effect on proliferation of anti-CD3 stimulated mouse splenocytes” value was “enhances proliferation”. The “reduction of lung metastasis (tumor nodules) relative to no treatment” value in experiment [6] (Table 1A study, Cohorts 3 and 4 (20 μg and 200 μg i.v., days 1, 2, 4, 6, 8, 12), day 14) is given as approximately 50%. For the same compound, in experiment [6], the “number of tumor nodules, difference versus no treatment saline (one-way ANOVA, p<0.05)” value is given as “Significant differences” and the “reduction of lung metastasis (tumor nodules) relative to no treatment saline” value is approximately 30%. Besides, the “effect on binding of human PD-L1-Fc fusion protein to human PD-1-expressing Jurkat cells” value in experiment [7] was “enhances binding”. Moreover, in experiment [8], the “binding to human PD-1 (BIACORE, yes/no)” value is “binds”. For the same compound, in [9], the “number of splenic IFNγ-secreting T cells relative to the control peptide” value is reported as “increase”. In addition, in [10], the “binding to mouse PD-1 (BIACORE, single concentration and kinetics)” value is recorded as “binds”.
RRTSPGQISTLRVNITAPLSQ [LD02] displayed a survival rate in experiment [4] of 30%.
Take `CC[C@H](C)[C@H](NC(=O)[C@H](CCC(N)=O)NC(=O)CNC(=O)[C@@H](NC(=O)[C@H](CO)NC(=O)[C@H](N)[C@H](C)O)[C@@H](C)O)C(=O)N[C@@H](CO)C(=O)N[C@H](C(=O)N[C@@H](CC(C)C)C(=O)N[C@@H](CCCNC(=N)N)C(=O)N[C@H](C(=O)N[C@@H](CC(N)=O)C(=O)N[C@H](C(=O)N[C@H](C(=O)N[C@@H](C)C(=O)N1CCC[C@H]1C(=O)N[C@@H](CC(C)C)C(=O)N[C@@H](CO)C(=O)N[C@@H](CCC(N)=O)C(N)=O)[C@@H](C)O)[C@@H](C)CC)C(C)C)[C@@H](C)O` [LD01 TQ19 da/LD16 da]: in experiment [6], the “number of tumor nodules, difference versus no treatment saline (one-way ANOVA, p<0.05)” value is recorded as “Significant differences” and the “reduction of lung metastasis (tumor nodules) relative to no treatment saline” value was approximately 30%.
Consider `CC[C@H](C)[C@H](NC(=O)[C@H](CCC(N)=O)NC(=O)CNC(=O)[C@@H](NC(=O)[C@H](N)CO)[C@@H](C)O)C(=O)N[C@@H](CO)C(=O)N[C@H](C(=O)N[C@@H](CC(C)C)C(=O)N[C@@H](CCCNC(=N)N)C(=O)N[C@H](C(=O)N[C@@H](CC(N)=O)C(=O)N[C@H](C(=O)N[C@H](C(=O)N[C@@H](C)C(=O)N1CCC[C@H]1C(=O)N[C@@H](CC(C)C)C(=O)N[C@@H](CO)C(=O)N[C@@H](CCC(N)=O)C(N)=O)[C@@H](C)O)[C@@H](C)CC)C(C)C)[C@@H](C)O` [LD10da], for which, in experiment [1] (Table 2B study, 200 μg i.p.), the “immunogenicity compared with α-PD-1 mAb (Cohort 6)” value is “slightly above”.
